Values quoted from earlier work in paper PMC8344243, “Design, synthesis, docking, ADMET studies, and anticancer evaluation of new 3-methylquinoxaline derivatives as VEGFR-2 inhibitors and apoptosis inducers” (Journal of Enzyme Inhibition and Medicinal Chemistry, 2021).
pIC50: −log10 of the molar value.

How the values were obtained:
Parameters in all cases: method as in PMID 33721808, PMID 34023640
[1] = tested on: HepG2; conditions: lead compounds of previous work ref 63, 64, read-out: Cytotoxicity on cancer cells IC50, HepG2; cited from earlier work
[2] = tested on: MCF-7; conditions: lead compounds of previous work ref 63, 64, read-out: Cytotoxicity on cancer cells IC50, MCF-7; cited from earlier work
[3] = target: T1, human VEGFR-2 (Homo sapiens, UniProt P35968); conditions: lead compounds of previous work ref 63, 64; cited from earlier work
T1 construct: endogenous in cells; host or cells: HepG2
T1 sequence (P35968 20-1356): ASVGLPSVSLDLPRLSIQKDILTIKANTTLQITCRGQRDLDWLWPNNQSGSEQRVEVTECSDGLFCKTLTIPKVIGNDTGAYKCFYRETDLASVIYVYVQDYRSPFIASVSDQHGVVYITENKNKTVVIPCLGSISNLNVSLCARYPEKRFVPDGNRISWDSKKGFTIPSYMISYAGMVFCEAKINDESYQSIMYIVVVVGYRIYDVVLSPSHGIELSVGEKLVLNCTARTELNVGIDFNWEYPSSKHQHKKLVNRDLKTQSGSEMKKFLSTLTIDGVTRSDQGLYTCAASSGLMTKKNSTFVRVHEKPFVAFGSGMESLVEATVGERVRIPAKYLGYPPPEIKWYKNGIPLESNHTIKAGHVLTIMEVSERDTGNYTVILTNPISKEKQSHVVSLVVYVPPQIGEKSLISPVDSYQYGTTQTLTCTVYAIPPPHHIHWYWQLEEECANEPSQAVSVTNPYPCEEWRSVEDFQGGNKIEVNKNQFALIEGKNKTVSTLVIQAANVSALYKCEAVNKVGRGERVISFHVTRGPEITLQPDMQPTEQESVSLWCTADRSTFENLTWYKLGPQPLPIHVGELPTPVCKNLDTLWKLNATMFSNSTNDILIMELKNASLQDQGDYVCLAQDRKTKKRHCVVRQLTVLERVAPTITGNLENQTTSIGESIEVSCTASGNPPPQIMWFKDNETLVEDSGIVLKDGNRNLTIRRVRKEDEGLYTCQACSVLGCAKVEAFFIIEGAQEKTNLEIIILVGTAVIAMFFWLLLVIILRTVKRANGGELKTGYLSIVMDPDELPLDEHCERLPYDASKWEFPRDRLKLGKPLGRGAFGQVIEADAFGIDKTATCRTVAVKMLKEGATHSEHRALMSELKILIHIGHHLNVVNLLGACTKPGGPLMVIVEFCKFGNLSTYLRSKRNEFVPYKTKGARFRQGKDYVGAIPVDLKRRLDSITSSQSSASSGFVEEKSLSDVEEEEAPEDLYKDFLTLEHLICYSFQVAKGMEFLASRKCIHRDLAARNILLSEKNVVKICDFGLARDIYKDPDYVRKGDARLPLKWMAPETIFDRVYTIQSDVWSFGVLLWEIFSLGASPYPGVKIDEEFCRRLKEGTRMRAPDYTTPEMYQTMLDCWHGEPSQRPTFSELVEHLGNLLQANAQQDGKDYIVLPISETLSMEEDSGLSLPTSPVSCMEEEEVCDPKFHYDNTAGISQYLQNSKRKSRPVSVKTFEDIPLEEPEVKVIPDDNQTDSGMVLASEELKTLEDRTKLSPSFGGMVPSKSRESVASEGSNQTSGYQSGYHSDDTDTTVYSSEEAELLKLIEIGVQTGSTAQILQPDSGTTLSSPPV

Row | SMILES | pIC50 [1] | pIC50 [2] | pIC50 [3]
1 | O=C(Cn1c(=O)c2nncn2c2ccccc21)Nc1ccc(C(=O)Nc2ccc(Cl)cc2)cc1 [Compound 7] | 5.39 | 5.14 | –
2 | COc1ccc(NC(=O)c2ccc(NC(=O)CSc3nnc4c5nncn5c5ccccc5n34)cc2)cc1 [Compound 8] | 5.48 | 5.36 | 8.49
